Measured values reported in US20180228894A1, “INHIBITION OF CXCR4 SIGNALING IN CANCER IMMUNOTHERAPY” (Cambridge Enterprise Limited, priority 2013, published 2018).
“Also recorded” adds a separate entry of the source.

How the values were obtained:
[1] = system: autochthonous mouse pancreatic tumors (KPC model); assay: In vitro T cell exclusion assay: vibratome sections of KPC pancreatic tumors overlaid with activated T cells; assay type: cell-based; settings: culture in the presence of the substance, 37° C. for up to 120 min
Excerpt: This assay tests the mechanism of T cell exclusion from the vicinity of the cancer cells. It also allows screening of drugs and tumors for potential efficacy. This in vitro assay may also be used to screen other drugs (anti-CXCL12, anti-CXCR4, other CXCR4-directed small molecules) that may interfere with the CXCL12/CXCR4 interaction.
300 um vibratome sections of fresh autochthonous mouse pancreatic tumors (the mouse KPC model of Hingorani et al., Cancer Cell 2005) are overlaid with labeled mouse splenic T cells that have been activated in vitro for several days with anti-CD3 and IL-2 (this generates a T cell population that is like the effector T cells that normally infiltrate inflamed tissues/tumors). The tumor tissue+labeled T cells are then cultured at 37° C. for up to 120 min, after which the non-infiltrated T cells are washed off. The vibratome sections are then fixed for staining (p53 which identifies cancer cells) and SHG (to visualize collagen/stromal regions) by confocal microscopy.

[2] = system: PDA; assay: PDA tumor volume by ultrasound in KPC / KPCD mice, 6 day treatment; assay type: in vivo, mouse
Method: (§1) All experiments were performed in accordance with institutional guidelines and were approved by the UK Home Office and the animal ethics committee of CRUK and the University of Cambridge. Mice were housed at a 12-hour light/12-hour dark cycle and received diet and water ad libitum. The generation of LSL-[…]; LSL10 Tp53R172H/+; Pdx-1-Cre (KPC) and FAP-DTR BAC transgenic mice has been described previously (8, 10). These strains were crossed to generate KPCD (Kras; p53; Cre; DTR) mice. KPC and KPCD mice were screened for tumors from an age of 60 days by abdominal palpation. Tumors were verified by high-resolution ultrasound (Vevo 2100, VisualSonics). Mice with average tumor diameters between 5-8 mm (corresponding to approx. 200 mm3 volume) were enrolled on 6 day treatment studies with 2 follow-up tumor size measurements (day 3 and 6). Where possible, tumors were assessed at multiple angles and the volumes averaged. KPC(−/+DTR Tg) mice were treated every 48 h with 25 ng/g DTx (List Biologicals) in PBS, […] α-PD1 (10F.9G2, Biolegend), 100 μg α-CTLA-4 (9H10, Biolegend) or isotype control antibody by intraperitoneal injection. […] For T-cell depletion studies mice received […] each of α-CD4 (GK1.5, Biolegend) and α-CD8α (53-6.7, Bioloegend) or respective isotype control antibodies for 3 consecutive […] before treatment start and on days 2 and 5 during the course of treatment via intraperitoneal injection.

[3] = system: PDA; assay: Immunofluorescent confocal microscopy / ARIOL scanning of KPC tumor sections after treatment; assay type: in vivo, mouse
Method: as §1
5 μm frozen tissue sections were fixed in 4% paraformaldehyde (PFA) for 10 minutes at room temperature. Slides were blocked for one hour in 10% donkey serum (Sigma Aldrich)/0.2% Triton x-100. Primary antibodies were incubated overnight at 4° C. Following washing, slides were incubated for one hour at room temperature with appropriate secondary antibody and DAPI counterstain. Slides were subsequently incubated in 0.3M glycine for 10 minutes to reduce autofluorescence and mounted in Hydromount aqueous mounting medium (Fisher Scientific). Images were acquired on a Leica SP5 tandem confocal microscope. For analysis of p53 and Treg staining slides were scanned and analyzed using the automated ARIOL XT system.

[4] = system: LL2/OVA tumors; settings: AMD3100 30 mg/ml osmotic pump; C57BL/6 and Rag2−/− mice
Method: C57BL/6 were purchased from Charles River UK and Rag2−/− mice were bred at the local establishment. 2×10^5 LL2/OVA cells were injected subcutaneously in RPMI with 1% heat inactivated mouse serum. Tumor sizes were measured using calipers, measuring the long (L) and short (S) dimension, and tumor volumes were calculated using the equation: volume=(L×S2)/2.

[5] = AMD3100 in combination with α-PD-L1, 24 h treatment

## Z-VAD
[1]
  Localization of T cells in tumor sections: T cells accumulating also amongst cancer cells

## c1cc(CN2CCCNCCNCCCNCC2)ccc1CN1CCCNCCNCCCNCC1 [AMD3100, 1,1′-[1,4-phenylenebis(methylene)]bis [1,4,8,11-tetraazacyclotetradecane]]
[2]; AMD3100 by osmotic pump, presence or absence of depleting antibodies to CD4+ and CD8+ T cells
  Tumor growth: slowed by AMD3100 in a T cell-dependent manner
[2]; higher dose AMD3100 in combination with α-PD-L1, by 48 h, maintained for 6 days
  Decline in PDA volume: 15%
[2]; higher dose of AMD3100 (osmotic pump)
  PDA growth: almost completely arrested PDA growth
[2]; murine PDA, combination
  Interaction of AMD3100 with α-PD-L1: remarkable synergistic interaction
[3]; AMD3100 alone, ARIOL scanning
  Composition of residual tumors: comprised of premalignant CK19+ epithelial cells and CD45+ inflammatory cells
[3]; AMD3100 and anti-PD-L1, 6 days (FIG. 11, panel E)
  Proliferating Ki67+ cells: diminution in proliferating Ki67+ cells
[3]; AMD3100 high in combination with α-PD-L1, 24 h
  Foxp3+ cells in the tumors: increase
[3]; [5]
  Accumulation of T cells amongst cancer cells: amplified this effect; also recorded: induce the accumulation of CD3+ T cells in cancer-cell-containing regions of PDA
  Frequency of p53+ LOH cancer cells: decreased the frequency of p53+ LOH cells; also recorded: loss of cancer cells
[3]; AMD3100 with α-PD-L1, ARIOL scanning
  Composition of residual tumors: comprised of premalignant CK19+ epithelial cells and CD45+ inflammatory cells
[3]; AMD3100 with α-PD-L1, after 6 days of treatment
  Presence of p53+ LOH cancer cells in tumors: rare
[3]; single agent, 24 h treatment
  Accumulation of T cells amongst cancer cells: increased the accumulation of T cells; also recorded: exclusion is overcome
[3]; single agent, after 6 days of treatment
  Presence of p53+ LOH cancer cells in tumors: rare
[4]
  Control of subcutaneous LL2 tumors (tumor volume): T cell-dependent control of subcutaneous immunogenic LL2 tumors
[1]
  Localization of T cells in tumor sections: T cells to be found in both stromal and cancer cell regions
